In US6372297B1, “Wood preservative oxathiazines” (Uniroyal Chemical Company, Inc., priority 1993, dated 2002):

Tests used:
Format in all cases: cell-based
Enterobacter aerogenes = assay: Wood preservative efficacy against bacteria and yeasts, tryptose agar plates; parameters: key: 0 = growth equal to control, 1 = inhibition, 2 = no growth
Procedure: Compositions were prepared by dissolving the compounds shown in Table 1 in 50% ethanol and further diluting with sterile distilled water. […] After cooling, the medium was inoculated with the bacteria listed below. After sufficient growth of the untreated cultures, the compounds were evaluated using the following rating system: 0=growth equal to control 1=inhibition of growth by the compound 2=no growth under the influence of the compound. In this Table, the higher numbers are the most preferred species. Enterobacter aerogenes (gram neg)

Aureobasidium pullulans = assay: Wood preservative efficacy against fungi, agar plate colony diameter; parameters: key: 1=25%, 2=50%, 3=75%, 4=100% of untreated growth; lower better; settings: 10 ppm, Table 6B
Procedure: The compounds shown in Table 1 were dissolved in 50% ethanol and then diluted with sterile water to give the required concentrations of 1 and 10 ppm in the test agar plates. Malt extract sugar (3%) was added aseptically and uniform distribution was obtained by shaking. Each plate was inoculated with a spore suspension or with a small piece of agar (1 mm) from the margin of an actively growing colony of the test fungus. The fungi employed are listed below. After incubation at 22° C. and 70% relative humidity during a period long enough to allow significant growth of untreated controls, the diameters of the fungus colonies were measured and scored using the following rating system:
1=25% of fungal growth compared to untreated
2=50% of fungal growth compared to untreated
3=75% of fungal growth compared to untreated
4=Growth equal to that of untreated
In these Tables, the lower numbers are the most preferred species.

Trichoderma viride = assay: as above; settings: 10 ppm, Table 6B
Procedure: (§1) Each plate was inoculated with a spore suspension or with a small piece of agar (1 mm) from the margin of an actively growing colony of the test fungus. The fungi employed are listed below. After incubation at 22° C. and 70% relative humidity during a period long enough to allow significant growth of untreated controls, the diameters of the fungus colonies were measured and scored using the following rating system: 0=free of fungal growth 1=25% of fungal growth compared to untreated 2=50% of fungal growth compared to untreated 3=75% of fungal growth compared to untreated 4=Growth equal to that of untreated The scores measured for wood preservation efficacy of the compounds of this invention are listed in Tables 6a and 6b. In these Tables, the lower numbers are the most preferred species. Trichoderma viride

Pseudomonas aeruginosa = assay: Wood preservative efficacy against bacteria and yeasts, tryptose agar plates; parameters: key: 0 = growth equal to control, 1 = growth inhibited, 2 = no growth; settings: 100 ppm in tryptose agar
Procedure: Compositions were prepared by dissolving the compounds shown in Table 1 in 50% ethanol and further diluting with sterile distilled water. […] After cooling, the medium was inoculated with the bacteria listed below. After sufficient growth of the untreated cultures, the compounds were evaluated using the following rating system: 0=growth equal to control 1=inhibition of growth by the compound 2=no growth under the influence of the compound. In this Table, the higher numbers are the most preferred species. Pseudomonas aeruginosa (gram neg)

Cladosporium resinae = assay: Wood preservative efficacy against fungi, agar plate colony diameter; settings: 10 ppm, Table 6B
Procedure: as §1, with “Cladosporium resinae (syn Hormonocanis resinae, Amorphotheca resinae)” for “Trichoderma viride”

Coriolus versicolor = assay: as above; settings: 10 ppm, Table 6B
Procedure: as §1, with “Coriolus versicolor” for “Trichoderma viride”

Aspergillus flavus = assay: as above; settings: 10 ppm, Table 6B
Procedure: as §1, with “Aspergillus flavus” for “Trichoderma viride”

Chaetomium globosum = assay: as above; settings: 10 ppm, Table 6B
Procedure: as §1, with “Chaetomium globosum” for “Trichoderma viride”

Escherichia coli = assay: Wood preservative efficacy against bacteria and yeasts, tryptose agar plates; parameters: key: 0 = growth equal to control, 1 = growth inhibited, 2 = no growth
Procedure: Compositions were prepared by dissolving the compounds shown in Table 1 in 50% ethanol and further diluting with sterile distilled water. […] After cooling, the medium was inoculated with the bacteria listed below. After sufficient growth of the untreated cultures, the compounds were evaluated using the following rating system: 0=growth equal to control 1=inhibition of growth by the compound 2=no growth under the influence of the compound. In this Table, the higher numbers are the most preferred species. Escherichia coli ([…])

## CCOc1ccc(C2=NOCC[S+]2C)cc1 (centres unmarked) [Compound 28]
Enterobacter aerogenes; 10 ppm in tryptose agar
  Score of bactericidal activity, E. aerogenes: 0
Enterobacter aerogenes; 100 ppm in tryptose agar
  Score of bactericidal activity, E. aerogenes: 0
Aureobasidium pullulans
  Score of fungicidal activity, A. PULLULANS: 4
Trichoderma viride
  Score of fungicidal activity, T. VIRIDE: 3 (75% of growth compared to untreated control)
Pseudomonas aeruginosa
  Score of bactericidal activity, P. aeruginosa: 0
Cladosporium resinae
  Score of fungicidal activity, CL RESINAE: 4
Coriolus versicolor
  Score of fungicidal activity, G. VERSICLOR: 3 (75% of growth compared to untreated control)
Aspergillus flavus
  Score of fungicidal activity, A. FLAVUS: 3 (75% of growth compared to untreated control)
Chaetomium globosum
  Score of fungicidal activity, C. GLOBOSUM: 4
Escherichia coli; 10 ppm in tryptose agar
  Score of bactericidal activity, E. Coli: 0
Escherichia coli; 100 ppm in tryptose agar
  Score of bactericidal activity, E. Coli: 0
